Patent publication US10882871B2, “18/19F-labelled compounds which target the prostate specific membrane antigen” (BRITISH COLUMBIA CANCER AGENCY BRANCH, priority 2016, dated 2021)
Values joined by “and” are separate entries in the source; they are usually repeats but may differ in a detail not shown here. Equal entries are not always repeated.

Tested on: tumors derived from LNCaP cells
Assay: PET/CT imaging and biodistribution of F-18 labeled HTK-01069 and HTK-01070 in tumor-bearing mice
Type: in vivo, mouse (NODSCID 1L2RγKO male mice)
Procedure: LNCap cell line used in the tumor model was obtained commercially from ATTC (LNCaP clone FGC, CRL-1740). It was established from a metastatic site of left supraclavicular lymph node of human prostatic adenocarcinoma. Cells were cultured in PRMI 1640 (StemCell Technologies, Vancouver, BC) supplemented by 10% FBS, 100 U/mL penicillin and 100 μg/mL streptomycin at 37° C. in a humidified incubator containing 5% CO2. Cells grown to 80-90% confluence were then washed with sterile phosphate-buffered saline (1×PBS pH 7.4) and trypsinization. The collected cells number was counted with Hemacytometer (Hausser Scientific).
Tumor implantation: Imaging and biodistribution experiments were performed using NODSCID 1L2RγKO male mice. Three or four mice in each cage equipped with enrichments. The mice were maintained and the experiments were conducted in according to the guidelines established by Canadian Council on Animal Care and approved by Animal Ethics Committee of the University of British Columbia. Mice were housed under pathogen-free conditions and kept on twelve hours light and twelve hours dark cycle in the Animal Research Centre, British Columbia Cancer Research Centre, Vancouver, Canada.
Mice were anesthetized by inhalation with 2.5% isoflurane in 2.0 L/min of oxygen during cells implantation. Mice were implanted subcutaneously with 1×10^7 LNCaP cells behind left shoulder. Mice were imaged or used in biodistribution studies when the tumor grew up to reach 5-8 mm in diameter during 5-6 weeks.
PET/CT Imaging: PET imaging experiments were conducted using Siemens inveon micro PET/CT scanner. Each tumor bearing mouse was injected ˜6.44 MBq of F-18 labeled HTK-01069 and ˜7.08 MBq of F-18 labeled HTK-01070 through the tail vein under anesthesia. After one hour, the mice were sedated again with 2% isoflurane inhalation and positioned in the scanner. Static PET imaging was performed to determined activity uptake of tumor and other organs. A CT scan was obtained for localization and attenuation correction after segmentation for reconstructing the PET images. The data was acquired by scanning the mice for 10 minutes each. The mice were kept warm by a heating pad during acquisition. The mice were euthanized after imaging and followed by biodistribution. Please see FIGS. 2 and 3 of this specification for reconstructed PET images for 1L2RγKO mice injected with HTK-01069 and HTK-01070 respectively.
Blood was withdrawn immediately, and the organs of interest were quickly removed. Each organ was weighed and the tissue radioactivity was measured with a Cobra II gamma counter (Packard), normalized to the injected dose using a standard curve and expressed as the percentage of the injected dose per gram of tissue (% ID/g). Biodistribution data are shown for HTK-01069 in Tables 5, 6 and 7 and HTK-01070 in Tables 8, 9, 10 of the specification respectively.

[1] = 1 h p.i. with co-injection of 0.5 mg DCFPyL, Avg
[2] = 1 h p.i. with co-injection of 0.5 mg DCFPyL, single mice

## C[N+](C)(Cc1cn(Cc2ccc(C(=O)NCCCC[C@H](NC(=O)N[C@@H](CCC(=O)O)C(=O)O)C(=O)O)cc2)nn1)C[B-](F)(F)[18F] [F-18 HTK-01070]
[1]
  Biodistribution Adrenals: 0.20 % ID/g
  Biodistribution Blood: 0.46 % ID/g
  Biodistribution Bone: 0.12 % ID/g
  Biodistribution Brain: 0.02 % ID/g
  Biodistribution Fat: 0.04 % ID/g
  Biodistribution Heart: 0.22 % ID/g
  Biodistribution Intestine: 0.31 % ID/g
  Biodistribution Kidney: 2.11 % ID/g
  Biodistribution Liver: 0.06 % ID/g
  Biodistribution Lung: 0.09 % ID/g
  Biodistribution Muscle: 0.30 % ID/g
  Biodistribution Pancreas: 1.76 % ID/g
  Biodistribution Seminal: 1.87 % ID/g
  Biodistribution Spleen: 0.06 % ID/g
  Biodistribution Stomach: 0.09 % ID/g
  Biodistribution Tail: 0.38 % ID/g
  Biodistribution Testes: 0.08 % ID/g
  Biodistribution Tumour: 0.27 % ID/g
[2]
  Biodistribution Adrenals: 0.23 % ID/g and 0.26 % ID/g and 0.17 % ID/g and 0.16 % ID/g
  Biodistribution Brain: 0.02 % ID/g
  Biodistribution Heart: 0.21 % ID/g and 0.27 % ID/g and 0.20 % ID/g and 0.19 % ID/g
  Biodistribution Intestine: 0.31 % ID/g and 0.30 % ID/g and 0.28 % ID/g and 0.32 % ID/g
  Biodistribution Kidney: 2.40 % ID/g and 2.05 % ID/g and 1.96 % ID/g
  Biodistribution Liver: 0.06 % ID/g and 0.08 % ID/g and 0.07 % ID/g and 0.05 % ID/g
  Biodistribution Lung: 0.11 % ID/g and 0.10 % ID/g and 0.07 % ID/g and 0.08 % ID/g
  Biodistribution Muscle: 0.31 % ID/g and 0.38 % ID/g and 0.23 % ID/g and 0.29 % ID/g
  Biodistribution Pancreas: 1.92 % ID/g and 1.65 % ID/g and 1.88 % ID/g and 1.57 % ID/g
  Biodistribution Spleen: 0.06 % ID/g and 0.05 % ID/g
  Biodistribution Stomach: 0.09 % ID/g and 0.14 % ID/g and 0.07 % ID/g
  Biodistribution Tail: 0.45 % ID/g and 0.35 % ID/g and 0.36 % ID/g
  Biodistribution Testes: 0.09 % ID/g and 0.10 % ID/g and 0.06 % ID/g
  Biodistribution Tumour: 0.35 % ID/g and 0.26 % ID/g and 0.21 % ID/g
1 h p.i., Avg
  Biodistribution Adrenals: 4.65 % ID/g
  Biodistribution Blood: 0.52 % ID/g
  Biodistribution Bone: 0.44 % ID/g
  Biodistribution Brain: 0.04 % ID/g
  Biodistribution Fat: 0.73 % ID/g
  Biodistribution Heart: 0.33 % ID/g
  Biodistribution Intestine: 0.33 % ID/g
  Biodistribution Kidney: 71.70 % ID/g
  Biodistribution Liver: 1.69 % ID/g
  Biodistribution Lung: 1.39 % ID/g
  Biodistribution Muscle: 0.23 % ID/g
  Biodistribution Pancreas: 0.33 % ID/g
  Biodistribution Seminal: 3.13 % ID/g
  Biodistribution Spleen: 5.01 % ID/g
  Biodistribution Stomach: 0.10 % ID/g
  Biodistribution Tail: 0.76 % ID/g
  Biodistribution Testes: 0.67 % ID/g
  Biodistribution Tumour: 8.28 % ID/g
1 h p.i., single mice
  Biodistribution Blood: 0.46 % ID/g and 0.63 % ID/g and 0.50 % ID/g and 0.51 % ID/g
  Biodistribution Bone: 0.37 % ID/g and 0.33 % ID/g and 0.58 % ID/g and 0.52 % ID/g and 0.38 % ID/g and 0.45 % ID/g
  Biodistribution Brain: 0.03 % ID/g and 0.04 % ID/g and 0.05 % ID/g
  Biodistribution Heart: 0.36 % ID/g and 0.47 % ID/g and 0.37 % ID/g and 0.27 % ID/g and 0.24 % ID/g and 0.28 % ID/g
  Biodistribution Intestine: 0.26 % ID/g and 0.32 % ID/g and 0.42 % ID/g and 0.37 % ID/g and 0.31 % ID/g
  Biodistribution Kidney: 62.45 % ID/g and 54.11 % ID/g and 52.66 % ID/g and 91.10 % ID/g and 76.59 % ID/g and 93.32 % ID/g
  Biodistribution Liver: 1.51 % ID/g and 1.53 % ID/g and 1.65 % ID/g and 1.90 % ID/g and 1.60 % ID/g and 1.94 % ID/g
  Biodistribution Lung: 1.32 % ID/g and 1.35 % ID/g and 1.24 % ID/g and 1.21 % ID/g and 1.59 % ID/g and 1.61 % ID/g
  Biodistribution Muscle: 0.28 % ID/g and 0.21 % ID/g and 0.24 % ID/g and 0.17 % ID/g and 0.25 % ID/g and 0.22 % ID/g
  Biodistribution Pancreas: 0.30 % ID/g and 0.33 % ID/g and 0.35 % ID/g and 0.28 % ID/g and 0.32 % ID/g and 0.41 % ID/g
  Biodistribution Spleen: 5.58 % ID/g and 4.75 % ID/g and 5.97 % ID/g and 4.51 % ID/g and 4.95 % ID/g and 4.31 % ID/g
  Biodistribution Stomach: 0.08 % ID/g and 0.09 % ID/g and 0.10 % ID/g and 0.16 % ID/g and 0.12 % ID/g
  Biodistribution Testes: 0.94 % ID/g and 0.79 % ID/g and 0.49 % ID/g and 0.57 % ID/g and 0.58 % ID/g and 0.64 % ID/g
  Biodistribution Tumour: 7.56 % ID/g and 10.45 % ID/g and 8.06 % ID/g and 8.60 % ID/g and 8.31 % ID/g and 6.70 % ID/g
2 h p.i., Avg
  Biodistribution Adrenals: 1.79 % ID/g
  Biodistribution Blood: 0.16 % ID/g
  Biodistribution Bone: 0.10 % ID/g
  Biodistribution Brain: 0.02 % ID/g
  Biodistribution Fat: 0.38 % ID/g
  Biodistribution Heart: 0.47 % ID/g
  Biodistribution Intestine: 0.25 % ID/g
  Biodistribution Kidney: 42.78 % ID/g
  Biodistribution Liver: 0.05 % ID/g
  Biodistribution Lung: 0.09 % ID/g
  Biodistribution Muscle: 0.35 % ID/g
  Biodistribution Pancreas: 1.50 % ID/g
  Biodistribution Seminal: 6.41 % ID/g
  Biodistribution Spleen: 0.17 % ID/g
  Biodistribution Stomach: 1.30 % ID/g
  Biodistribution Tail: 0.56 % ID/g
  Biodistribution Testes: 0.28 % ID/g
  Biodistribution Tumour: 6.84 % ID/g
2 h p.i., single mice
  Biodistribution Brain: 0.02 % ID/g and 0.03 % ID/g
  Biodistribution Heart: 0.32 % ID/g and 0.58 % ID/g and 0.55 % ID/g and 0.44 % ID/g and 0.46 % ID/g
  Biodistribution Intestine: 0.21 % ID/g and 0.23 % ID/g and 0.26 % ID/g and 0.24 % ID/g and 0.32 % ID/g
  Biodistribution Liver: 0.04 % ID/g and 0.06 % ID/g and 0.05 % ID/g and 0.07 % ID/g
  Biodistribution Muscle: 0.31 % ID/g and 0.39 % ID/g and 0.27 % ID/g and 0.33 % ID/g and 0.44 % ID/g
  Biodistribution Pancreas: 1.30 % ID/g and 1.76 % ID/g and 1.41 % ID/g and 1.23 % ID/g and 1.80 % ID/g
  Biodistribution Testes: 0.23 % ID/g and 0.34 % ID/g and 0.26 % ID/g and 0.19 % ID/g and 0.36 % ID/g
  Biodistribution Tumour: 6.12 % ID/g and 6.47 % ID/g and 7.93 % ID/g
